Results taken from the supplement of paper PMC8671470.

Legend:
Conditions in all cases: 72 h
MV4-11 [1] = tested on: MV4-11
How it was run: (§1)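 The IC50 was read from log-logistic dose–response fits. Fifteen myeloid leukaemia lines were exposed for 72 h at 37 °C with 5% CO2 to five tenfold doses from 1 to 10,000 nM in duplicate. ATP luminescence, normalised to vehicle and to a 10 µM positive control, was fitted with four parameters.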

K-562 [2] = tested on: K-562
How it was run: as §1

NOMO-1 [3] = tested on: NOMO-1
How it was run: as §1

ML-2 [4] = tested on: ML-2
How it was run: as §1

KCL-22 [5] = tested on: KCL-22
How it was run: as §1

KG-1 [6] = tested on: KG-1
How it was run: as §1

LAMA-84 [7] = tested on: LAMA-84
How it was run: as §1

KU-812 [8] = tested on: KU-812
How it was run: as §1

SHI-1 [9] = tested on: SHI-1
How it was run: as §1

Mono-Mac-6 [10] = tested on: Mono-Mac-6
How it was run: as §1

BV-173 [11] = tested on: BV-173
How it was run: as §1

HL-60 [12] = tested on: HL-60
How it was run: as §1

MOLM-13 [13] = tested on: MOLM-13
How it was run: as §1

THP-1 [14] = tested on: THP-1
How it was run: as §1

HEL [15] = tested on: HEL
How it was run: as §1

MV4-11 [16] = assay: cell viability (% survival relative to DMSO control, bortezomib = 0%); higher = less cytotoxic
How it was run: (§2)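 Fifteen myeloid leukaemia cell lines were exposed to compounds at 1, 10, 100, 1000 or 10000 nM in 384-well plates for 72 h at 37 °C and 5% CO2. Viability was read by CellTiter-Glo luminescence and normalised, with vehicle as 100% and a 10 µM positive control as 0%. Values are percent survival averaged over duplicates.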

K-562 [17] = assay: as above
How it was run: as §2

NOMO-1 [18] = assay: as above
How it was run: as §2

ML-2 [19] = assay: as above
How it was run: as §2

KCL-22 [20] = assay: as above
How it was run: as §2

KG-1 [21] = assay: as above
How it was run: as §2

LAMA-84 [22] = assay: as above
How it was run: as §2

KU-812 [23] = assay: as above
How it was run: as §2

SHI-1 [24] = assay: as above
How it was run: as §2

Mono-Mac-6 [25] = assay: as above
How it was run: as §2

BV-173 [26] = assay: as above
How it was run: as §2

HL-60 [27] = assay: as above
How it was run: as §2

MOLM-13 [28] = assay: as above
How it was run: as §2

THP-1 [29] = assay: as above
How it was run: as §2

HEL [30] = assay: as above
How it was run: as §2

CCCCCCCC/C=C\CCCCCCCC(=O)Nc1ccccc1 [Octadec-9-Enoic Acid Phenylamide]
Conditions | IC50 (cell viability) [µM]
BV-173 [11] | > 10
HEL [15] | > 10
HL-60 [12] | > 10
K-562 [2] | > 10
KCL-22 [5] | > 10
KG-1 [6] | > 10
KU-812 [8] | > 10
LAMA-84 [7] | > 10
ML-2 [4] | > 10
MOLM-13 [13] | > 10
MV4-11 [1] | > 10
Mono-Mac-6 [10] | > 10
NOMO-1 [3] | > 10
SHI-1 [9] | > 10
THP-1 [14] | > 10

cell viability [%]
Conditions | 1 nM | 10 nM | 100 nM | 1000 nM | 10000 nM
BV-173 [26] | 98.4 | 94.8 | 99.7 | 100 | 95.7
HEL [30] | 104 | 92.9 | 92.3 | 106 | 104
HL-60 [27] | 96.1 | 105 | 113 | 100 | 124
K-562 [17] | 110 | 92.7 | 95.8 | 104 | 93.4
KCL-22 [20] | 103 | 95.7 | 99.5 | 103 | 96.6
KG-1 [21] | 107 | 96.9 | 99.9 | 99.2 | 97.4
KU-812 [23] | 100 | 96.3 | 95.6 | 96.8 | 108
LAMA-84 [22] | 107 | 97.8 | 101 | 103 | 99.4
ML-2 [19] | 113 | 105 | 99.9 | 103 | 108
MOLM-13 [28] | 106 | 90.3 | 91.1 | 98.3 | 108
MV4-11 [16] | 118 | 100 | 108 | 110 | 82.6
Mono-Mac-6 [25] | 97.1 | 103 | 108 | 99.5 | 101
NOMO-1 [18] | 97 | 97.1 | 97.1 | 99.2 | 99.6
SHI-1 [24] | 109 | 94.4 | 103 | 100 | 98
THP-1 [29] | 98.7 | 97.9 | 103 | 93.5 | 107

OC[C@H]1O[C@@H](n2cnc3c2N=CNC[C@H]3O)C[C@@H]1O [Pentostatin]
Conditions | IC50 (cell viability) [µM]
BV-173 [11] | > 10
HEL [15] | > 10
HL-60 [12] | > 10
K-562 [2] | > 10
KCL-22 [5] | > 10
KG-1 [6] | > 10
KU-812 [8] | > 10
LAMA-84 [7] | > 10
ML-2 [4] | > 10
MOLM-13 [13] | > 10
MV4-11 [1] | > 10
Mono-Mac-6 [10] | > 10
NOMO-1 [3] | > 10
SHI-1 [9] | > 10
THP-1 [14] | > 10

cell viability [%]
Conditions | 1 nM | 10 nM | 100 nM | 1000 nM | 10000 nM
BV-173 [26] | 102 | 97.4 | 117 | 94.5 | 101
HEL [30] | 105 | 89.4 | 102 | 103 | 142
HL-60 [27] | 99.5 | 99.7 | 98.2 | 100 | 118
K-562 [17] | 95.3 | 106 | 111 | 99.2 | 107
KCL-22 [20] | 99.1 | 89.9 | 101 | 94.3 | 105
KG-1 [21] | 101 | 104 | 97.9 | 108 | 97.8
KU-812 [23] | 96.4 | 99.5 | 112 | 95.1 | 115
LAMA-84 [22] | 102 | 99.6 | 111 | 101 | 108
ML-2 [19] | 99.2 | 86.6 | 99.1 | 108 | 123
MOLM-13 [28] | 86.9 | 99.7 | 101 | 110 | 114
MV4-11 [16] | 95.8 | 104 | 107 | 105 | 103
Mono-Mac-6 [25] | 104 | 94.2 | 105 | 91.9 | 99.3
NOMO-1 [18] | 105 | 94.3 | 113 | 98.8 | 106
SHI-1 [24] | 93.9 | 100 | 94.5 | 100 | 111
THP-1 [29] | 102 | 93.5 | 111 | 98.3 | 103

O=C(NCCN1CCC(n2c(O)nc3ccccc32)CC1)c1cc2cc(F)ccc2[nH]1 [FIPI]
Conditions | IC50 (cell viability) [µM]
BV-173 [11] | > 10
HEL [15] | > 10
HL-60 [12] | > 10
K-562 [2] | 6.19
KCL-22 [5] | > 10
KG-1 [6] | > 10
KU-812 [8] | > 10
LAMA-84 [7] | > 10
ML-2 [4] | > 10
MOLM-13 [13] | > 10
MV4-11 [1] | > 10
Mono-Mac-6 [10] | 8.61
NOMO-1 [3] | > 10
SHI-1 [9] | > 10
THP-1 [14] | > 10

cell viability [%]
Conditions | 1 nM | 10 nM | 100 nM | 1000 nM | 10000 nM
BV-173 [26] | 96.9 | 101 | 99.9 | 99.3 | 58.9
HEL [30] | 99.1 | 99.8 | 101 | 104 | 82.5
HL-60 [27] | 105 | 103 | 112 | 97.7 | 92.2
K-562 [17] | 99.1 | 106 | 108 | 101 | 27.3
KCL-22 [20] | 100 | 98 | 91.1 | 94.9 | 67.7
KG-1 [21] | 101 | 92.4 | 103 | 91.2 | 65.1
KU-812 [23] | 104 | 92.9 | 105 | 106 | 66.2
LAMA-84 [22] | 99.3 | 103 | 103 | 98.6 | 70.5
ML-2 [19] | 96.3 | 98.6 | 107 | 110 | 75.8
MOLM-13 [28] | 79.6 | 104 | 98.9 | 95.4 | 69
MV4-11 [16] | 91.3 | 88.1 | 100 | 94.6 | 53.2
Mono-Mac-6 [25] | 104 | 107 | 106 | 70.6 | 64.5
NOMO-1 [18] | 96.7 | 95.4 | 110 | 102 | 95.3
SHI-1 [24] | 103 | 104 | 97.5 | 97.9 | 85
THP-1 [29] | 95.8 | 93.9 | 101 | 105 | 96.3
